Measurements as given in paper PMC11484942, “Rumicidins are a family of mammalian host-defense peptides plugging the 70S ribosome exit tunnel” (Nature Communications, 2024).
Ends that are not written are not given here.

Columns and labels:
[1] = tested on: HEK293T (transformed embryonic kidney cells); experiment: MTT cytotoxicity; assay type: cell-based, human; details: mean
Protocol: (§1) Hemolytic activity of the peptides was tested against the fresh suspension of human red blood cells (hRBC) using the hemoglobin release assay as described previously. Two experiments were performed with the hRBC from blood samples collected from healthy donors by certified medical personnel upon informed written consent. All procedures were approved by the Ethics Committee of the Institute of Experimental Medicine (protocol 1/20 of 2/27/2020) and comply with the ethical principles of the Declaration of Helsinki. The quantitative data were represented as average means with standard deviations. The colorimetric 3-(4,5-dimethylthiazol-2-yl)-2,5-diphenyltetrazolium bromide (MTT) dye reduction assay was used to determine cytotoxicity of the peptides against human keratinocyte cell line (HaCaT) and transformed human embryonic kidney cells (HEK293T). Both cell lines were purchased from American Type Culture Collection (ATCC). 10^4 cells per well in Dulbecco’s modified Eagle’s medium (DMEM/F12) supplemented with 10% fetal bovine serum (FBS, Invitrogen) were placed into 96-well plates and then cultured in the CO2-incubator (5% CO2, 37 °C). After the media were removed, the peptides were dissolved in 100 µL of the same medium and added to cell cultures at different final concentrations. 20 h later, 20 μL of MTT (5 mg/mL, Sigma) was added to each well, and the plates were incubated for 4 h at 37 °C. Then, the media were discarded and 100 µL DMSO-isopropanol mixture at a ratio of 1:1 (v/v) was added to each well to dissolve the crystallized formazan. The absorbance at 570 nm was measured by a microplate reader AF2200 (Eppendorf). An optical density in the wells containing cells cultured without the peptides was assumed to represent 100% cell viability. Two independent experiments were performed for each peptide.

HaCaT (keratinocytes) = experiment: MTT cytotoxicity; assay type: cell-based, human
Protocol: as §1

E. cloacae XDR CI 4172 = assay type: cell-based, Enterobacter cloacae; details: XDR CI 4172, 24 h
Protocol: (§2) The reduction of resazurin to resorufin was recorded.

[2] = tested on: E. coli 1057 R2 (rpoS^Q3stop, macB^N470D); details: MHB + 0.9% NaCl
Protocol: Minimum inhibitory concentrations (MIC) were determined by broth microdilution assay based on Clinical and Laboratory Standards Institute (CLSI) guidelines using BSA in the growth medium to minimize AMP nonspecific adsorption. Bacterial test cultures were grown in the Mueller-Hinton broth (MHB, Sigma) at 37 °C to mid-log phase and then diluted with the 2× MH medium supplemented with 1.8% NaCl (or without salt) so that to reach a final cell concentration of 10^6 CFU/mL. 50 µL of the obtained bacterial suspension were added to aliquots of 50 µL of the peptide solutions serially diluted with sterilized 0.1% bovine serum albumin (BSA) in 96-well flat-bottom polystyrene microplates (Eppendorf #0030730011). […] To verify MIC values, the respiratory activity of the bacteria was determined. Briefly, 5 µL of 0.5 mg/mL resazurin (Sigma) was added to the wells after 24 h (or after 48 h for M. smegmatis) of incubation, and the plate was incubated for additional 3 h. In some cases, MICs were determined in the Lysogeny Broth (LB) or Middlebrook 7H9 medium. The reduction of resazurin to resorufin was recorded. […] The results were expressed as the median values determined based on at least three independent experiments performed in triplicate.
Resistance induction experiments were performed using the previously described method. This approach allows for monitoring MIC values after each transfer. Briefly, on the first day, the overnight culture of the wild-type bacteria was diluted with the 2× MHB supplemented with 1.8% NaCl (or without salt) to reach a final cell concentration of 10^6 CFU/mL. 50 µL of the obtained bacterial suspension were added to aliquots of 50 µL of the peptide solutions serially diluted with the sterilized 0.1% BSA in 96-well flat-bottom polystyrene microplates. After incubation for 20 ± 2 h at 37 °C and 950 rpm, MICs were determined as described above. For each subsequent daily transfer, 2–4 μL of the inoculum taken from the first well containing a sub-inhibitory drug concentration was diluted with 2 mL of the fresh 2× MHB supplemented with 1.8% NaCl (or without salt). […] Multiple repeated passages in the presence of antimicrobial agents were performed for each bacterial strain during the experiment. Bacteria that grew at the highest concentrations of AMPs on the final day were passaged further 3 times on drug-free agar plates before determining the final MIC value.

E. coli ATCC 25922 = assay type: cell-based, Escherichia coli; details: ATCC 25922, 24 h
Protocol: as §2

S. aureus ATCC 29213 = assay type: cell-based, Staphylococcus aureus; details: ATCC 29213, 24 h
Protocol: as §2

[3] = tested on: human red blood cells (hRBC); experiment: Hemolysis (hemoglobin release assay); assay type: cell-based; details: mean
Protocol: as §1

mycobacteria = details: cited from earlier work
Description: To estimate the therapeutic potential of rumicidins as candidate compounds for combating bacterial infections, we assessed their antimicrobial activity against a wide panel of strains. As expected, antibacterial activities of rumicidins, like those of known PrAMPs, decreased in most cases in the presence of salt, which might inhibit the adsorption of the peptides to the bacterial surface. Besides, their activities against Gram-negative bacteria deficient in SbmA protein (Pseudomonas aeruginosa and Proteus mirabilis) were also less pronounced. Amon ...

panel of tested strains = details: over all tested strains of Fig. 6a
Protocol: Minimum inhibitory concentrations (MIC) were determined by broth microdilution assay based on Clinical and Laboratory Standards Institute (CLSI) guidelines using BSA in the growth medium to minimize AMP nonspecific adsorption[49]. Bacterial test cultures were grown in the Mueller-Hinton broth (MHB, Sigma) at 37 °C to mid-log phase and then diluted with the 2× MH medium supplemented with 1.8% NaCl (or without salt) so that to reach a final cell concentration of 10^6 CFU/mL. 50 µL of the obtained bacterial suspension were added to aliquots of 50 µL of the peptide solutions serially diluted with sterilized 0.1% bovine serum albumin (BSA) in 96-well flat-bottom polystyrene microplates (Eppendorf #0030730011). […] To verify MIC values, the respiratory activity of the bacteria was determined. Briefly, 5 µL of 0.5 mg/mL resazurin (Sigma) was added to the wells after 24 h (or after 48 h for M. smegmatis) of incubation, and the plate was incubated for additional 3 h. In some cases, MICs were determined in the Lysogeny Broth (LB) or Middlebrook 7H9 medium. The reduction of resazurin to resorufin was recorded. […] The results were expressed as the median values determined based on at least three independent experiments performed in triplicate.

[4] = tested on: Mycobacterium smegmatis mc(2)155; assay type: cell-based; details: Mycobacterium mc(2)155, 24 h
Protocol: as §2

[5] = tested on: Proteus mirabilis XDR CI 3423; assay type: cell-based; details: XDR CI 3423, 24 h
Protocol: as §2

P. aeruginosa ATCC 27853 = assay type: cell-based, Pseudomonas aeruginosa; details: ATCC 27853, 24 h
Protocol: as §2

M. luteus B-1314 = assay type: cell-based, Micrococcus luteus; details: B-1314, 24 h
Protocol: as §2

[6] = tested on: ribosome on ermCL / RST1 mRNA; experiment: Toe-printing (primer-extension inhibition) in PURExpress system; assay type: biochemical; details: 5 µM
Protocol: Toe-print analysis was performed as previously described[20] on two matrices: ErmCL and RST1. Briefly, the PURExpress system (NEB) was used for transcription and subsequent translation, then a reverse transcription reaction was performed. The ErmCL template was generated by PCR with two partially self-complementary oligonucleotides (Erm-F and Erm-R, Supplementary Table 8). […] oligonucleotide was used for reverse transcription. RST1 template was prepared as previously described[58] using PCR primers (T7fwd and NV1). Concentrations of tested compounds in toe-print were 0.5, 5, or 50 μM. 1% (v/v) DMSO water solution was used as a negative control sample. Two independent experiments were performed using both matrices, and the observed effects were the same.

E. coli BW25113 = experiment: MIC broth microdilution; assay type: cell-based, Escherichia coli
Protocol: as §2

[7] = tested on: E. coli BL21 (DE3) Star cell extract; experiment: Cell-free protein synthesis (coupled transcription/translation) of EGFP; assay type: biochemical, Escherichia coli; details: minimum concentration that provides >90% inhibition of the EGFP synthesis in the CFPS system
Protocol: To investigate the effects of AMPs and antibiotics on the coupled transcription/translation process, the test compounds were added to a cell-free protein synthesis (CFPS) reaction mix with a plasmid encoding enhanced green fluorescent protein (EGFP) variant (F64L, S65T, Q80R, F99S, M153T, and V163A) under control of the T7 promoter. The cell lysate was prepared using the E. coli BL21 Star (DE3) overexpressed T7 RNA polymerase as described previously. The reaction mix consisted of the following components: 1.2 mM ATP, 0.8 mM UTP, 0.8 mM GTP, 0.8 mM CTP, 2 mM of each of 20 proteinogenic amino acids, 1.5 mM spermidine, 1 mM putrescine dihydrochloride, 0.06647 mM calcium folinate, […] tRNA from the E. coli MRE 600 strain, 0.33 mM NAD, 120 mM HEPES-KOH (pH 8.0), 10 mM ammonium glutamate, 175 mM potassium glutamate, 60 mM glucose, 15 mM magnesium glutamate, 2% PEG 8000, 25% E. coli BL21 Star (DE3) cell lysate, 1 ng/ml plasmid DNA. The reaction volume was 50 µL. The peptides were dissolved in PBS with the addition of 0.1% BSA. Erythromycin was used in the positive control reactions. The fluorescence of the sample without inhibitor was set as the 100% value. The reaction proceeded for 2 h in 96-well v-bottom black polystyrene microplates (Eppendorf #0030601904) in a plate shaker (30 °C, 1000 rpm). The fluorescence of the synthesized EGFP was measured with the microplate reader AF2200 (λEx = 488 nm, λEm = 510 nm; Eppendorf). The experimental data were obtained from at least two independent experiments performed in triplicate. Non-linear regression curves were generated using GraphPad Prism v.8.0.1 (GraphPad Software Inc.).

E. coli ML-35p = experiment: Cytoplasmic membrane permeability assay (ONPG); assay type: cell-based, Escherichia coli; details: 4 h exposure, 10 mM NaPB pH 7.4 + 0.9% NaCl, melittin = 100%, mean of two experiments
Protocol: To examine the ability of the peptides to affect the barrier function of outer and inner membranes of Gram-negative bacteria, we slightly modified the previously described procedure[22] with the use of the E. coli ML-35p strain constitutively expressing cytoplasmic β-galactosidase but lacking lactose permease, and also containing β-lactamase in the periplasmic space. The state of the E. coli ML-35p outer and cytoplasmic membranes was assessed based on their permeability to chromogenic markers nitrocefin (Calbiochem) and o-nitrophenyl-β-D-galactopyranoside (ONPG, AppliChem) which are the β-lactamase and β-galactosidase substrates, respectively. The cells were incubated in the trypticase soy broth (TSB) for 16 h at 37 °C, washed three times with phosphate-buffered saline (PBS, pH 7.4) to remove residual growth media, adjusted to the concentration of 2.5 × 10^8 CFU/mL, and stored on ice until used. Experiments were performed in 10 mM sodium phosphate buffer (NaPB, pH 7.4) with or without the addition of 0.9% NaCl and/or a mixture of divalent cations (0.5 mM CaCl2 and 0.5 mM MgSO4). The final concentration of E. coli ML-35p cells was of 2.5 × 10^7 CFU/mL. The concentrations of ONPG and nitrocefin were of 2.5 mM and 20 µM, respectively. Peptide samples were placed in the wells of a 96-well flat-bottom polystyrene microplate, and optical density of the solution enhanced due to an appearance of the hydrolyzed nitrocefin or ONPG and was measured at 492 and 405 nm, respectively, using a microplate reader AF2200. The final volume in each well was 200 µL. Assays were performed at 37 °C under stirring at 500 rpm. Control experiments were performed under the same conditions without adding a peptide. Two independent experiments were performed, and the curve pattern was the same.

RRIRPRPPRLPRPRPRPLPFPR [Bac7[1-22]]
HEK293T cell viability ([1]; 1 µM): 111.372% | HEK293T cell viability ([1]; 2 µM): 111.629% | HEK293T cell viability ([1]; 4 µM): 112.981% | HEK293T cell viability ([1]; 8 µM): 107.36% | HEK293T cell viability ([1]; 16 µM): 102.824% | HEK293T cell viability ([1]; 32 µM): 100.41% | HEK293T cell viability ([1]; 64 µM): 98.194% | HaCaT cell viability (HaCaT (keratinocytes); 1 µM): 99.202% | HaCaT cell viability (HaCaT (keratinocytes); 2 µM): 105.318% | HaCaT cell viability (HaCaT (keratinocytes); 4 µM): 103.256% | HaCaT cell viability (HaCaT (keratinocytes); 8 µM): 103.504% | HaCaT cell viability (HaCaT (keratinocytes); 16 µM): 102.717% | HaCaT cell viability (HaCaT (keratinocytes); 32 µM): 102.854% | HaCaT cell viability (HaCaT (keratinocytes); 64 µM): 101.039% | MIC E. cloacae XDR CI 4172 (E. cloacae XDR CI 4172): 1 µM | MIC [2]: 32 µM | MIC E. coli ATCC 25922 (E. coli ATCC 25922): 1 µM | MIC S. aureus ATCC 29213 (S. aureus ATCC 29213): > 32 µM | Hemolysis ([3]; 0.25 µM): 0.017% | Hemolysis ([3]; 0.5 µM): 0.093% | Hemolysis ([3]; 1 µM): 0.134% | Hemolysis ([3]; 2 µM): 0.206% | Hemolysis ([3]; 4 µM): 0.371% | Hemolysis ([3]; 8 µM): 0.43% | Hemolysis ([3]; 16 µM): 0.525% | Hemolysis ([3]; 32 µM): 0.835% | Hemolysis ([3]; 64 µM): 1.043%

PR-39
MIC (mycobacteria): ~ 10 µM

RIKIPRPPKPRRPHRPRPGRRRPWFPPRFP [Rumicidin-3]
median MIC (panel of tested strains): about 2 µM | MIC [2]: 4 µM | Minimum inhibitory concentration (MIC) [4]: 4 µM | MIC S. aureus ATCC 29213 (S. aureus ATCC 29213): > 32 µM

RRRPRPPYLPRPRPPPFFPPRL [PR-39[1-22]]
MIC [2]: 32 µM | MICs depending on the test medium [4]: 8 to 16 µM | Minimum inhibitory concentration (MIC) [4]: 8 µM | MIC Proteus mirabilis XDR CI 3423 [5]: > 32 µM | MIC S. aureus ATCC 29213 (S. aureus ATCC 29213): > 32 µM | MIC P. aeruginosa ATCC 27853 (P. aeruginosa ATCC 27853): > 32 µM | MIC M. luteus B-1314 (M. luteus B-1314): > 32 µM

KPRPPHRPRPRPRPWFPPRFP [Rum-1[9-29]]
toe-print result [6]: strong AUG toe-print signal comparable to that of the wild-type peptide | Minimum inhibitory concentration MHB + 0.9% NaCl (E. coli BW25113; Mueller-Hinton broth + 0.9% NaCl, 24 h 37 °C, median of ≥3 experiments): 32 µM | Minimum inhibitory concentration MHB (E. coli BW25113; Mueller-Hinton broth without salt, 24 h 37 °C, median of ≥3 experiments): 8 µM | fold change of MIC vs wild-type rumicidin-1 (E. coli BW25113; N-terminal shortening): ≥ 4 fold | Protein synthesis inhibition [7]: 4 µM | permeabilized cells (ONPG hydrolysis, % of melittin) (E. coli ML-35p; 4 µM): 0.080% | permeabilized cells (ONPG hydrolysis, % of melittin) (E. coli ML-35p; 16 µM): 1.213% | permeabilized cells (ONPG hydrolysis, % of melittin) (E. coli ML-35p; 64 µM): 3.493%
